Data reported in patent publication US11524003B2, “Alpha-amino esters of hydroxypropylthiazolidine carboxamide derivative and salt form, crystal polymorph thereof” (ObsEva S.A., priority 2016, dated 2022).
In brackets after ≈: the same amount, converted by molar mass. Like-named read-outs stand apart in the source and are kept apart here.

Experiments:
Caco-2 cell monolayer = test: Bidirectional permeability across Caco-2 cell monolayers; assay type: in vitro ADME, human
Experimental: (§1) Compound I was dissolved in HBSS buffer (1% DMSO final concentration) at the concentrations of 1.5, 3 and 6 μM. Each concentration/sampling time was run in duplicate well. The test was performed in a gradient pH: the apical compartment (mucosal) was at pH 6.5, the basolateral compartment (serosal) was at pH 7.4.
(§2) Apical to basolateral (A→B, mucosal to serosal) transport: 200 μL of each concentration of compound I was added to the apical compartment and 400 μL of HBSS was added to the basolateral compartment. The plates were incubated at 37° C. An aliquot of the basolateral compartment was sampled after 60 and 120 min (t=60 and t=120). An aliquot of the apical compartment was sampled at the starting time (t=0) and after 120 min. (t=120).
(§3) Basolateral to apical (B→A, serosal to mucosal) transport: 400 μL of each concentration of compound I was added to the basolateral compartment and 200 μL of HBSS was added to the apical compartment. The plates were incubated at 37° C. An aliquot of the apical compartment was sampled after 60 and 120 min (t=60 and t=120). An aliquot of the basolateral compartment was sampled at the starting time (t=0) and after 120 min. (t=120). All samples were analyzed by LC/MS monitoring both compound I and the appearance of compound II.
as §1, with “II” for “I”
as §2, with “II” for “I”
as §3, with “of compound II was added” for “of compound I was added”, “LC/MS monitoring compound II.” for “LC/MS monitoring both compound I and the appearance of compound II.”

[1] = Solubility in water, FaSSIF and FeSSIF; assay type: physicochemical
[2] = Non-specific binding to cell-free transwells; assay type: in vitro ADME; settings: 1.5, 3 and 6 μM; apical pH 6.5, basolateral pH 7.4
Experimental: Non-specific binding and recovery was assessed across cell-free transwells.
Compound I was tested at 1.5, 3 and 6 μM in duplicate cell-free transwells. The test was performed in a pH gradient between the apical and the basolateral compartment. […] The following sampling times were performed: 60 and 120 min for the basolateral compartment (receiver) and 120 min for the apical compartment (donor). Samples obtained were analyzed by LC-MS, both compound I and compound II were monitored in order to assess percent of recovery.

[3] = Stability in HBSS buffer of the Caco-2 experiments; assay type: in vitro ADME; settings: HBSS buffer (2% DMSO final concentration) at 37° C. for 60 and 120 minutes
Experimental: Stability of both compound I and compound II was assessed during the test. […] An aliquot of each solution was sampled at time zero (t=0) to assess the starting concentrations of the compounds. The solutions were incubated at 37° C. for the duration of the transport experiment. An aliquot of each solution was sampled at the end of experiment (t=120) to assess the final concentrations of compound I and compound II. Samples were analyzed by LC-MS.

[4] = In vivo conversion of compound I to compound II
Experimental: The invention is based on the discovery that compound I ((3S)-3-({[(2S)-3-(biphenyl-4-ylsulfonyl)-1,3-thiazolidin-2-yl]carbonyl}-amino)-3-(4-fluorophenyl)propyl L-valinate, represented by formula I, below) and salts thereof are converted in vivo to 3-([1,1′-biphenyl]-4-ylsulfonyl)-N-[1-(4-fluorophenyl)-3-hydroxypropyl]-1,3-thiazolidine-2-carboxamide (represented by formula II, below).
Compound II is a competitive and reversible prostaglandin F2α receptor antagonist (human FP2α receptor Ki=6 nM) that is under development for the management of preterm labor by inhibition of premature uterine contractions.

PepT1 transporter = target: T1, PepT1 transporter (Homo sapiens, UniProt P46059); test: Mucosal-to-serosal transport in Caco-2 after pre-treatment with PepT1 substrate Gly-Sar; assay type: in vitro ADME
T1 construct: host or cells: Caco-2
T1 sequence (P46059 1-708): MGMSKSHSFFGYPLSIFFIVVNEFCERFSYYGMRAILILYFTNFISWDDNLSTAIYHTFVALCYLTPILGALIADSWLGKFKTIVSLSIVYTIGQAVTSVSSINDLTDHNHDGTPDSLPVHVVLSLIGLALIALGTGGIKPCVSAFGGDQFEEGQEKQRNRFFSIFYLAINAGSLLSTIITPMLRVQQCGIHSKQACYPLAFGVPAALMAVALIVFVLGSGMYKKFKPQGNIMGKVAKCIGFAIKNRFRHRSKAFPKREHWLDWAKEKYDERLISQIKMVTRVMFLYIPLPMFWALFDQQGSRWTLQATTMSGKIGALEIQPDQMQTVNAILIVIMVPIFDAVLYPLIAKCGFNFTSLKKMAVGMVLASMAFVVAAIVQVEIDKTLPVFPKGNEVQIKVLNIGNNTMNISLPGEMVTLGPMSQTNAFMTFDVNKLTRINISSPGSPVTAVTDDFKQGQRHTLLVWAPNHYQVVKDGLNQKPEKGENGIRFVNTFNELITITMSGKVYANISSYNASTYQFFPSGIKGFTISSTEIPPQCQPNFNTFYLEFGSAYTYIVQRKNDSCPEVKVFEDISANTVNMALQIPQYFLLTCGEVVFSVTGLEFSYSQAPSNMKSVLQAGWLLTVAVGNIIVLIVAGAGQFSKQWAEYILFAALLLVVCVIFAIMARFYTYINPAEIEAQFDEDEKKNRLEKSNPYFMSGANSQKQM
Experimental: The differentiated cells were pre-treated for 30 min. with 10 mM of Gly-Sar in order to block the active transporter PepT1.
as §1, with “[…].” for “μM.”
Apical to basolateral (A→B, mucosal to serosal) transport: 200 μL of each concentration of compound I was added to the apical compartment and 400 μL of HBSS was added to the basolateral compartment. The plates were incubated at 37° C. An aliquot of the basolateral compartment was sampled after 60 and 120 min (t=60 and t=120). An aliquot of the apical compartment was sampled at the starting time (t=0) and after 120 min. (t=120). All samples were analyzed by LC/MS monitoring both compound I and the appearance of compound II.

[5] = system: spontaneous uterine contractions; test: Spontaneous uterine activity in late-term anaesthetized pregnant rat; assay type: in vivo; settings: late-term pregnant rats
Source text: The tocolytic effects of compound I and compound II were investigated in a model of spontaneous uterine activity in late-term (19-21 days of gestation) anaesthetized pregnant rat (Kawarabayashi et al. Am. J. Obstet. Gynecol. 175:1348-1355 (1996) and Shinkai et al. J. Pharm. Pharmacol. 52:1417-1423 (2000)). Briefly, late-term pregnant female rats were anaesthetized with urethane. One pregnant uterine horn was exposed and a polyethylene catheter bearing on the tip a latex balloon filled with saline was inserted into the lumen. The catheter was connected to an amplifying/recording system via a pressure-transducer. […] The percent variation of the AUC values relative to the spontaneous uterine response observed after each compound administration was calculated in comparison to the value recorded before the first dose-administration (basal value). The effect of compound I or compound II was evaluated by comparing pre- and post-treatment luminal uterine pressure values. For the oral administration the same computation procedure was applied at different time points after treatment. Statistical differences between treatment groups at each time-point were determined by using one-way ANOVA followed by Tukey test. Both compounds intravenously or orally administered were able to markedly reduce spontaneous uterine

CC(C)[C@H](N)C(=O)OCC[C@H](NC(=O)[C@@H]1SCCN1S(=O)(=O)c1ccc(-c2ccccc2)cc1)c1ccc(F)cc1 [Compound I, (3S)-3-({[(2S)-3-(biphenyl-4-ylsulfonyl)-1,3-thiazolidin-2-yl]carbonyl}-amino)-3-(4-fluorophenyl)propyl L-valinate]
Conversion of compound I into compound II in Caco-2 test (Caco-2 cell monolayer): confirmed
Compound I in receiving (apical) compartment, basolateral to apical (Caco-2 cell monolayer; 60 and 120 minutes): not detected
Compound I in receiving (basolateral) compartment, apical to basolateral (Caco-2 cell monolayer; 60 and 120 minutes): not detected
Recovery of compound I in apical compartment at end of apical to basolateral experiment (Caco-2 cell monolayer; 120 min): low recovery
Passage through the Caco-2 cell monolayer (Caco-2 cell monolayer; bi-directional test): did not pass through the cell monolayer
solubility ([1]; FaSSIF, pH 6.5 (fasted state), read-out: Solubility in FaSSIF pH 6.5): 70 µg/mL (≈ 117 µM)
solubility ([1]; FeSSIF, pH 5.0 (fed state), read-out: Solubility in FeSSIF pH 5.0): 90 µg/mL (≈ 150 µM)
Non-specific binding in the Caco-2 test system without cells [2]: excluded
Stability in HBSS buffer [3]: stable
Conversion to compound II after gastro-intestinal tract administration [4]: rapidly converted to compound II
PepT1 mediation of transport across Caco-2 monolayers (PepT1 transporter): likely not mediated by PepT1
Compound I in receiving compartment after Gly-Sar pre-treatment (PepT1 transporter; 10 mM Gly-Sar, A→B, 60 and 120 min): not detected
Effect on spontaneous uterine contraction (FIG. 2) [5]: dose-dependent and reversible effect
